Laboratory results as given in PMC12297955, “Comparative Study: Biguanide-, Sulfonamide-, and Natural Agent-Based Interventions in an In Vivo Experimental Diabetes Model” (Medicina, 2025).
“And” between values parts separate entries of the source, which are not always exact repeats. Identical values can stand only once.

What was measured:
[1] = tested on: alloxan-induced diabetic rats; experiment: Blood glucose level in alloxan-induced diabetes model; assay type: in vivo, Wistar female rats; details: mean ± SD; for Blood glucose (BG) level, mean: alloxan-induced diabetic rats, oral gavage daily for 5 weeks, metformin 300 mg/kg/day, S 150 mg/kg/day, sage extract 150 mg/kg/day; for Average blood glucose reduction (pre- vs post-treatment): end of week 3 vs end of week 8, oral daily 5 weeks, metformin 300, S 150, sage 150 mg/kg/day
Experimental: The in vivo experiment was conducted using Wistar female rats, obtained through the “Grigore T. Popa” University of Medicine and Pharmacy (UMF) Iași, from the Cantacuzino Institute in Bucharest, Romania. Throughout the experimental period, the animals were housed at the CEMEX biobase, within the UMF “Grigore T. Popa” Iași. […] Female rats were selected in alignment with the broader research objective focused on diabetes-induced alterations of the female reproductive system.
Following a 7-day acclimatization period, diabetes was induced in groups 2–6 by a single intraperitoneal injection of alloxan at a dose of 150 mg/kg body weight.
Blood glucose (BG) was assessed 5 days post-administration using peripheral tail vein blood. A threshold of 200 mg/dL was used to confirm severe hyperglycemia. […] The end of week 3 thus marked the point of confirmed diabetes and the onset of pharmacological interventions. […] The full experimental timeline extended over 8 weeks.
To minimize potential confounders, all experimental procedures—including compound administration and blood glucose level measurements— were performed at the same time of day for all animals. Blood glucose (BG) levels were monitored weekly using a portable glucometer (tail vein blood).
To quantify the hypoglycemic effect of the applied treatments, the percentage decrease in blood glucose was calculated based on pre- and post-treatment values using the following formula: Absolute decrease in blood glucose %=blood glucose (pre−treatment)−blood glucose (post−treatment)/blood glucose (pre−treatment)×100

[2] = set-up: method as in earlier work; details: rats, ref 42 (Choi et al. 2006); cited from earlier work
[3] = Plasma steady-state concentration by HPLC and volume of distribution; details: female, Wistar, rat, oral, 300 mg/kg/day, rats, oral daily dosing 5 weeks, HPLC, metformin 300 mg/kg/day, S 150 mg/kg/day
Experimental: At the end of the experimental period, blood samples were collected from the retro-orbital plexus under ketamine anesthesia (75 mg/kg body weight). Samples were collected into EDTA-coated tubes and stored at −20 °C until biochemical analyses were performed. Finally, the animals were humanely euthanized using Thiopental 0.01%.
Extraction of the target compounds from whole blood samples was performed using a liquid–liquid extraction method, with dichloromethane as the organic solvent (sample: solvent ratio 1:2). The extraction was carried out under acidic conditions (pH 3, using 4% acetic acid). Following centrifugation, the organic phase was evaporated under a stream of high-purity nitrogen gas at 40 °C (Thermo Scientific, Bremen, Germany). The resulting dry residue was reconstituted in 500 µL of 10% methanol in water.
Separation was achieved on a 150-4.6 LiChrospher®RP-18, 5 µm, column (Merck, Darmstadt, Germany). […] The flow rate was set to 1.0 mL/min, and the total run time for each analysis was 30 min.
The volume of distribution at steady state (Vd) was calculated using the following formula: Vd=D/Css(L) where D represents the administered dose, calculated individually based on each animal’s body weight (mg/kg), and Css is the steady-state plasma concentration (mg/L).

Molecule | Blood glucose (BG) level, mean [1] | Average blood glucose reduction (pre- vs post-treatment) [1] | Fraction of oral dose subject to gastrointestinal and hepatic first-pass effects [2] | concentration at 5 weeks ([3]; Average plasma concentration (steady state), mean ± SD) | concentration at 5 weeks ([3]; Plasma concentration, range)
CN(C)C(=N)N=C(N)N [metformin] | 224.8 ± 192.78 mg/dL | 36.4% and 36.46 ± 32.5% and 36.46% | approximately 65% | 5320 ± 1580 ng/mL | 3170 to 7540 ng/mL
N-(diaminomethylene)-4-methylbenzenesulfonamide | 236.0 ± 94.70 mg/dL | 40.6% and 40.95 ± 15.94% | – | – | –
